The test concerns the target PDE10A (Homo sapiens (Human), UniProt Q9Y233). Nature of the test: PDE10A inhibition assay. Format: biochemical. How it is done:
Active PDE10A enzyme is prepared in a number of ways for use in PDE assays (Loughney, K. et al. Gene 1999, 234, 109-117; Fujishige, K. et al. Eur J. Biochem. 1999, 266, 1118-1127 and Soderling, S. et al. Proc. Natl. Acad. Sci. 1999, 96, 7071-7076). PDE10A can be expressed as full-length proteins or as truncated proteins, as long as they express the catalytic domain. PDE10A can be prepared in different cell types, for example insect cells or E. coli. An example of a method to obtain catalytically active PDE10A is as follows: The catalytic domain of human PDE10A (amino acids 440-779 from the sequence with accession number NP 006652) is amplified from total human brain total RNA by standard RT-PCR and is cloned into the BamH1 and Xho1 sites of the pET28a vector (Novagen). Expression in coli is performed according to standard protocols. Briefly, the expression plasmids are transformed into the BL21(DE3) E. coli strain, and 50 mL cultures inoculated with the cells allowed to grow to an OD600 of 0.4-0.6 before protein expression is induced with 0.5 mM IPTG. Following induction, the cells are incubated overnight at room temperature, after which the cells are collected by centrifugation. Cells expressing PDE10A are resuspended in 12 mL (50 mM TRIS-HCl-pH8.0, 1 mM MgCl2 and protease inhibitors). The cells are lysed by sonication, and after all cells are lysed, TritonX100 is added according to Novagen protocols.
A PDE10A assay may for example, be performed as follows: The assay is performed in 60 uL samples containing a fixed amount of the relevant PDE enzyme (sufficient to convert 20-25% of the cyclic nucleotide substrate); a buffer (50 mM HEPES7.6; 10 mM MgCl2; 0.02% Tween20), 0.1 mg/ml BSA, 225 pCi of ^3H-labelled cyclic nucleotide substrate, tritium labeled cAMP to a final concentration of 5 nM and varying amounts of inhibitors. Reactions are initiated by addition of the cyclic nucleotide substrate, and reactions are allowed to proceed for one hr at room temperature before being terminated through mixing with 15 uL 8 mg/mL yttrium silicate SPA beads (Amersham). The beads are allowed to settle for one hr in the dark before the plates are counted in a Wallac 1450 Microbeta counter. The measured signal can be converted to activity relative to an uninhibited control (100%) and IC50 values can be calculated using the Xlfit extension to EXCEL.
Chain of PDE10A (Q9Y233 716-1055): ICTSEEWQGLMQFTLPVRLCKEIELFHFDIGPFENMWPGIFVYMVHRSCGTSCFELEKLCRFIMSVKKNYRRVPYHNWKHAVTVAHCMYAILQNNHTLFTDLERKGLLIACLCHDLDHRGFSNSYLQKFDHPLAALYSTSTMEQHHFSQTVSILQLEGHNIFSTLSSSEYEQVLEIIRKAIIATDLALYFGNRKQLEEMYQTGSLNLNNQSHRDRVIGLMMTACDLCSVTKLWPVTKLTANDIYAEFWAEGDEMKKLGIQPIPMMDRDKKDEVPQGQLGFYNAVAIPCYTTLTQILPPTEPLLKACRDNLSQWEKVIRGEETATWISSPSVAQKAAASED
One may read the IC50 as the point on the concentration scale where inhibition reaches its midpoint. `Cc1cc(C)n2cc(CCc3nc(-c4cncs4)cn3CC(O)c3ccc(Cl)cc3)nc2n1` (centres unmarked) [1-(4-Chloro-phenyl)-2-{2-[2-(5,7-dimethyl-imidazo[1,2-a]pyrimidin-2-yl)-ethyl]-4-thiazol-5-yl-imidazol-1-yl}-ethanol] had an IC50 of 5.7 nM.
The compound `COCC(O)Cn1cc(-c2cccs2)nc1CCc1nc2cccc(C)n2n1` (centres unmarked) [1-Methoxy-3-{2-[2-(5-methyl-[1,2,4]triazolo[1,5-a]pyridin-2-yl)-ethyl]-4-thiophen-2-yl-imidazol-1-yl}-propan-2-ol] had an IC50 of 7.5 nM.
`COCC(O)Cn1cc(-c2cccs2)nc1CCc1nc2c(C)cccn2n1` (centres unmarked) [1-Methoxy-3-{2-[2-(8-methyl-[1,2,4]triazolo[1,5-a]pyridin-2-yl)-ethyl]-4-thiophen-2-yl-imidazol-1-yl}-propan-2-ol] came in with a half-inhibitory concentration (IC50) of 8.4 nM.
For `COCC(O)Cn1cc(-c2cncs2)nc1CCc1cn2c(C)cc(C)nc2n1` (centres unmarked) [1-{2-[2-(5,7-Dimethyl-imidazo[1,2-a]pyrimidin-2-yl)-ethyl]-4-thiazol-5-yl-imidazol-1-yl}-3-methoxy-propan-2-ol] the value was 58 nM.
As for `Cc1cc(C)n2cc(CCc3nc(-c4cccs4)cn3CC(O)CF)nc2n1` (centres unmarked) [1-{2-[2-(5,7-Dimethyl-imidazo[1,2-a]pyrimidin-2-yl)-ethyl]-4-thiophen-2-yl-imidazol-1-yl}-3-fluoro-propan-2-ol], the midpoint of inhibition, the IC50, lay at 14 nM.
For `COCC(O)Cn1cc(-c2cccs2)nc1CCc1cn2c(C)cc(C)nc2n1` (centres unmarked) [1-{2-[2-(5,7-Dimethyl-imidazo[1,2-a]pyrimidin-2-yl)-ethyl]-4-thiophen-2-yl-imidazol-1-yl}-3-methoxy-propan-2-ol] the value was 7.9 nM; for `Cc1cc(C)n2cc(CCc3nc(-c4cccs4)cn3C3CCCC3)nc2n1` [2-[2-(1-Cyclopentyl-4-thiophen-2-yl-1H-imidazol-2-yl)-ethyl]-5,7-dimethyl-imidazo[1,2-a]pyrimidine], 46 nM.
For `Cc1cc(C)n2cc(CCc3nc(-c4cccs4)cn3CC(C)C)nc2n1` [2-[2-(1-Isobutyl-4-thiophen-2-yl-1H-imidazol-2-yl)-ethyl]-5,7-dimethyl-imidazo[1,2-a]pyrimidine] the value was 12 nM; for `Cc1cc(C)n2cc(CCc3nc(-c4cccs4)cn3C(C)C)nc2n1` [2-[2-(1-Isopropyl-4-thiophen-2-yl-1H-imidazol-2-yl)-ethyl]-5,7-dimethyl-imidazo[1,2-a]pyrimidine], 160 nM.
For `Cc1ncc(C)n2nc(CCc3nc(-c4ccoc4)cn3C)nc12` [2-[2-(4-Furan-3-yl-1-methyl-1H-imidazol-2-yl)-ethyl]-5,8-dimethyl-[1,2,4]triazolo[1,5-a]pyrazine], the IC50 was 2.9 nM.
Compound `COc1ccc(C)n2nc(CCc3nc(-c4ccoc4)cn3C)nc12` [2-[2-(4-Furan-3-yl-1-methyl-1H-imidazol-2-yl)-ethyl]-8-methoxy-5-methyl-[1,2,4]triazolo[1,5-a]pyridine] returned a concentration for half-maximal inhibition (IC50) of 4 nM.
The compound `Cc1cc(C)n2cc(/C=C/c3nc(-c4ccco4)cn3C)nc2n1` [2-[(E)-2-(4-Furan-2-yl-1-methyl-1H-imidazol-2-yl)-vinyl]-5,7-dimethyl-imidazo[1,2-a]pyrimidine] registered a concentration for half-maximal inhibition (IC50) of 25 nM.
Next, `Cc1cc(C)n2cc(/C=C/c3nc(-c4ccoc4)cn3C)nc2n1` [2-[(E)-2-(4-Furan-3-yl-1-methyl-1H-imidazol-2-yl)-vinyl]-5,7-dimethyl-imidazo[1,2-a]pyrimidine]: 140 nM; `COc1cccn2nc(/C=C/c3nc(-c4ccoc4)cn3C)nc12` [2-[(E)-2-(4-Furan-3-yl-1-methyl-1H-imidazol-2-yl)-vinyl]-8-methoxy-[1,2,4]triazolo[1,5-a]pyridine]: 47 nM.
Next, `COCCn1cc(-c2cncs2)nc1CCc1cn2c(C)cc(C)nc2n1` [2-{2-[1-(2-Methoxy-ethyl)-4-thiazol-5-yl-1H-imidazol-2-yl]-ethyl}-5,7-dimethyl-imidazo[1,2-a]pyrimidine]: 210 nM.
Compound `COCCn1cc(-c2cccs2)nc1CCc1cn2c(C)cc(C)nc2n1` [2-{2-[1-(2-Methoxy-ethyl)-4-thiophen-2-yl-1H-imidazol-2-yl]-ethyl}-5,7-dimethyl-imidazo[1,2-a]pyrimidine] gave an IC50 of 130 nM.
For `Cc1cccc2nc(/C=C/c3nc(-c4ccco4)cn3COCC[Si](C)(C)C)nn12` [2-{(E)-2-[4-Furan-2-yl-1-(2-trimethylsilanyl-ethoxymethyl)-1H-imidazol-2-yl]-vinyl}-5-methyl-[1,2,4]triazolo[1,5-a]pyridine] the value was 46 nM; for `Cc1cccc2nc(CCc3nc(-c4cccs4)cn3C[C@@H](O)CN(C)CCC#N)nn12` [3-[((S)-2-Hydroxy-3-{2-[2-(5-methyl-[1,2,4]triazolo[1,5-a]pyridin-2-yl)-ethyl]-4-thiophen-2-yl-imidazol-1-yl}-propyl)-methyl-amino]-propionitrile], 10000 nM; for `COc1ccc(C)n2nc(CCc3nc(-c4cccs4)cn3CCCC#N)nc12` [4-{2-[2-(8-Methoxy-5-methyl-[1,2,4]triazolo[1,5-a]pyridin-2-yl)-ethyl]-4-thiophen-2-yl-imidazol-1-yl}-butyronitrile], 1.7 nM.
Take `Cc1cc(C)n2nc(CCc3nc(-c4cccnc4)cn3C)nc2n1` [5,7-Dimethyl-2-[2-(1-methyl-4-pyridin-3-yl-1H-imidazol-2-yl)-ethyl]-[1,2,4]triazolo[1,5-a]pyrimidine]: the IC50 amounted to 44 nM.
The compound `Cc1cc(C)n2nc(CCc3nc(-c4cccs4)cn3C)nc2n1` [5,7-Dimethyl-2-[2-(1-methyl-4-thiophen-2-yl-1H-imidazol-2-yl)-ethyl]-[1,2,4]triazolo[1,5-a]pyrimidine] yielded a concentration for half-maximal inhibition (IC50) of 4.2 nM.
Consider `Cc1cc(C)n2cc(CCc3nc(-c4cccs4)cn3C)nc2n1` [5,7-Dimethyl-2-[2-(1-methyl-4-thiophen-2-yl-1H-imidazol-2-yl)-ethyl]-imidazo[1,2-a]pyrimidine], for which the IC50 amounted to 45 nM.
`Cc1cc(C)n2cc(CCc3nc(-c4ccsc4)cn3C)nc2n1` [5,7-Dimethyl-2-[2-(1-methyl-4-thiophen-3-yl-1H-imidazol-2-yl)-ethyl]-imidazo[1,2-a]pyrimidine] had a 50% inhibitory concentration (IC50) of 33 nM.
For `CCCn1cc(-c2cccs2)nc1CCc1cn2c(C)cc(C)nc2n1` [5,7-Dimethyl-2-[2-(1-propyl-4-thiophen-2-yl-1H-imidazol-2-yl)-ethyl]-imidazo[1,2-a]pyrimidine] the value was 3.4 nM; for `Cc1cc(C)n2cc(/C=C/c3nc(-c4cnccn4)cn3C)nc2n1` [5,7-Dimethyl-2-[(E)-2-(1-methyl-4-pyrazin-2-yl-1H-imidazol-2-yl)-vinyl]-imidazo[1,2-a]pyrimidine], 340 nM; for `Cc1cc(C)n2cc(/C=C/c3nc(-c4cccnc4)cn3C)nc2n1` [5,7-Dimethyl-2-[(E)-2-(1-methyl-4-pyridin-3-yl-1H-imidazol-2-yl)-vinyl]-imidazo[1,2-a]pyrimidine], 220 nM.
`Cc1cc(C)n2cc(/C=C/c3nc(-c4cscn4)cn3C)nc2n1` [5,7-Dimethyl-2-[(E)-2-(1-methyl-4-thiazol-4-yl-1H-imidazol-2-yl)-vinyl]-imidazo[1,2-a]pyrimidine] returned a concentration for half-maximal inhibition (IC50) of 180 nM.
`Cc1cc(C)n2cc(/C=C/c3nc(-c4cncs4)cn3C)nc2n1` [5,7-Dimethyl-2-[(E)-2-(1-methyl-4-thiazol-5-yl-1H-imidazol-2-yl)-vinyl]-imidazo[1,2-a]pyrimidine] displayed a concentration for half-maximal inhibition (IC50) of 97 nM.
Next, `Cc1cc(C)n2cc(/C=C/c3nc(-c4cccs4)cn3C)nc2n1` [5,7-Dimethyl-2-[(E)-2-(1-methyl-4-thiophen-2-yl-1H-imidazol-2-yl)-vinyl]-imidazo[1,2-a]pyrimidine]: 8.8 nM.
Next, `Cc1cc(C)n2cc(/C=C/c3nc(-c4ccsc4)cn3C)nc2n1` [5,7-Dimethyl-2-[(E)-2-(1-methyl-4-thiophen-3-yl-1H-imidazol-2-yl)-vinyl]-imidazo[1,2-a]pyrimidine]: 56 nM.
In the case of `Cc1cc(C)n2cc(CCc3nc(-c4cccs4)cn3CCN3CCOCC3)nc2n1` [5,7-Dimethyl-2-{2-[1-(2-morpholin-4-yl-ethyl)-4-thiophen-2-yl-1H-imidazol-2-yl]-ethyl}-imidazo[1,2-a]pyrimidine], the IC50 is 36 nM.
Compound `Cc1cc(C)n2cc(CCc3nc(-c4cccs4)cn3CCC(C)C)nc2n1` [5,7-Dimethyl-2-{2-[1-(3-methyl-butyl)-4-thiophen-2-yl-1H-imidazol-2-yl]-ethyl}-imidazo[1,2-a]pyrimidine] showed a half-inhibitory concentration (IC50) of 6.8 nM.

Source of the values: patent US9096589B2, “Heteroaromatic phenylimidazole derivatives as PDE10A enzyme inhibitors” (H. Lundbeck A/S, priority 2009, dated 2015).
